Tests used:
Assay type in all cases: in vivo
[1] = system: Alopecurus myosuroides (ALOMY); experiment: Pre-emergence herbicidal activity, glasshouse pot test; details: Alopecurus myosuroides, 480 h, evaluated after 20 days, read-out: Pre-emergence activity, ALOMY (100=total damage to plant; 0=no damage to plant); for pest or weed control at 500 g/ha: rate 500 g/ha
In short: (§1)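 One day after sowing in sterilised soil, pots receive an aqueous spray made from the compound dissolved in acetone and a formulation of emulsifier, N-methylpyrrolidone, glycol ether and X-77 wetter. Injury is assessed 20 days later against untreated expectations, scored from 0 (no damage) to 100.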

[2] = system: Digitaria sanguinalis (DIGSA); experiment: as above; details: Digitaria sanguinalis, 480 h, evaluated after 20 days, read-out: Pre-emergence activity, DIGSA (100=total damage to plant; 0=no damage to plant); for pest or weed control at 500 g/ha: rate 500 g/ha
In short: as §1

[3] = system: Setaria faberi (SETFA); experiment: as above; details: Setaria faberi, 480 h, evaluated after 20 days, read-out: Pre-emergence activity, SETFA (100=total damage to plant; 0=no damage to plant); for pest or weed control at 500 g/ha: rate 500 g/ha
In short: as §1

[4] = system: Avena fatua (AVEFA); experiment: as above; details: Avena fatua, 480 h, evaluated after 20 days, read-out: Pre-emergence activity, AVEFA (100=total damage to plant; 0=no damage to plant); for pest or weed control at 500 g/ha: rate 500 g/ha
In short: as §1

[5] = system: Echinochloa crus-galli (ECHCG); experiment: as above; details: Echinochloa crus-galli, 480 h, evaluated after 20 days, read-out: Pre-emergence activity, ECHCG (100=total damage to plant; 0=no damage to plant); for pest or weed control at 500 g/ha: rate 500 g/ha
In short: as §1

[6] = system: Lolium perenne (LOLPE); experiment: as above; details: Lolium perenne, 480 h, evaluated after 20 days, read-out: Pre-emergence activity, LOLPE (100=total damage to plant; 0=no damage to plant); for pest or weed control at 500 g/ha: rate 500 g/ha
In short: as §1

[7] = system: Alopecurus myosuroides (ALOMY); experiment: Post-emergence herbicidal activity, glasshouse pot test; details: Alopecurus myosuroides, evaluated after 14 or 15 days, read-out: Post-emergence activity, ALOMY (100=total damage to plant; 0=no damage to plant); for pest or weed control at 500 g/ha: rate 500 g/ha
In short: (§2)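 Plants sown in sterilised standard soil, grown 10 days in glasshouse, then sprayed with aqueous dilution of active ingredient formulated in acetone plus Emulsogen EL/N-methylpyrrolidone/dipropylene glycol monomethyl ether/X-77 solution. Damage scored visually 14 or 15 days after spraying, 0 (none) to 100 (total).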

[8] = system: Digitaria sanguinalis (DIGSA); experiment: as above; details: Digitaria sanguinalis, evaluated after 14 or 15 days, read-out: Post-emergence activity, DIGSA (100=total damage to plant; 0=no damage to plant); for pest or weed control at 500 g/ha: rate 500 g/ha
In short: as §2

[9] = system: Setaria faberi (SETFA); experiment: as above; details: Setaria faberi, evaluated after 14 or 15 days, read-out: Post-emergence activity, SETFA (100=total damage to plant; 0=no damage to plant); for pest or weed control at 500 g/ha: rate 500 g/ha
In short: as §2

[10] = system: Avena fatua (AVEFA); experiment: as above; details: Avena fatua, evaluated after 14 or 15 days, read-out: Post-emergence activity, AVEFA (100=total damage to plant; 0=no damage to plant); for pest or weed control at 500 g/ha: rate 500 g/ha
In short: as §2

[11] = system: Echinochloa crus-galli (ECHCG); experiment: as above; details: Echinochloa crus-galli, evaluated after 14 or 15 days, read-out: Post-emergence activity, ECHCG (100=total damage to plant; 0=no damage to plant); for pest or weed control at 500 g/ha: rate 500 g/ha
In short: as §2

[12] = system: Lolium perenne (LOLPE); experiment: as above; details: Lolium perenne, evaluated after 14 or 15 days, read-out: Post-emergence activity, LOLPE (100=total damage to plant; 0=no damage to plant); for pest or weed control at 500 g/ha: rate 500 g/ha
In short: as §2

Row | Compound | pest or weed control at 500 g/ha [1] | pest or weed control at 500 g/ha [2] | pest or weed control at 500 g/ha [3] | pest or weed control at 500 g/ha [4] | pest or weed control at 500 g/ha [5] | pest or weed control at 500 g/ha [6] | pest or weed control at 500 g/ha [7] | pest or weed control at 500 g/ha [8] | pest or weed control at 500 g/ha [9] | pest or weed control at 500 g/ha [10] | pest or weed control at 500 g/ha [11] | pest or weed control at 500 g/ha [12] | further results
1 | CCc1cc(C)cc(CC)c1C1=C(O)CC(C(C)(C)S(C)(=O)=O)CC1=O (stereo not drawn) [Compound T19] | – | – | – | – | – | – | – | – | – | – | – | – | pest or weed control at 250 g/ha ([1]; rate 250 g/ha): 70%; pest or weed control at 250 g/ha ([2]; rate 250 g/ha): 90%; pest or weed control at 250 g/ha ([3]; rate 250 g/ha): 50%; pest or weed control at 250 g/ha ([4]; rate 250 g/ha): 70%; pest or weed control at 250 g/ha ([5]; rate 250 g/ha): 80%; pest or weed control at 250 g/ha ([6]; rate 250 g/ha): 80%; pest or weed control at 250 g/ha ([7]; rate 250 g/ha): 80%; pest or weed control at 250 g/ha ([8]; rate 250 g/ha): 80%; pest or weed control at 250 g/ha ([9]; rate 250 g/ha): 80%; pest or weed control at 250 g/ha ([10]; rate 250 g/ha): 80%; pest or weed control at 250 g/ha ([11]; rate 250 g/ha): 80%; pest or weed control at 250 g/ha ([12]; rate 250 g/ha): 80%
2 | CCc1cc(C)cc(CC)c1C1=C(O)CC(C(C)(C)SC)CC1=O (stereo not drawn) [Compound T20] | 100% | 100% | 100% | 100% | 100% | 100% | 100% | 100% | 100% | 100% | 100% | 100% | –
3 | CCc1cc(C)cc(CC)c1C1=C(O)CC(C2(SC)CC2)CC1=O (stereo not drawn) [Compound T21] | 100% | 100% | 100% | 100% | 100% | 100% | 90% | 100% | 90% | 100% | 90% | 90% | –
4 | CCc1cc(C)cc(CC)c1C1=C(O)CC2(CCOCC2)CC1=O [Compound T22, 9-(2,6-diethyl-4-methylphenyl)-3-oxaspiro[5.5]undecane-8,10-dione] | 100% | 100% | 100% | 100% | 100% | 100% | – | – | – | – | – | – | pest or weed control at 125 g/ha ([7]; rate 125 g/ha): 100%; pest or weed control at 125 g/ha ([8]; rate 125 g/ha): 100%; pest or weed control at 125 g/ha ([9]; rate 125 g/ha): 100%; pest or weed control at 125 g/ha ([10]; rate 125 g/ha): 90%; pest or weed control at 125 g/ha ([11]; rate 125 g/ha): 100%; pest or weed control at 125 g/ha ([12]; rate 125 g/ha): 90%
5 | CCc1cc(C)cc(CC)c1C1=C(O)CC(COCOC)CC1=O (stereo not drawn) [Compound T23] | 80% | 100% | 70% | 70% | 100% | 80% | 90% | 90% | 100% | 80% | 100% | 90% | –

Reference: patent US8084649B2, “Herbicides” (Syngenta Crop Protection, inc., priority 2007, dated 2011)
